Measurements published in PubChem BioAssay AID1963849 (Molecular Pharmacology Branch, DTP, NCI, 2024).

System: 299254-011-R-J1-PDC complex spheroid viability
Assay: Anticancer human tumor 299254-011-R-J1-PDC patient-derived melanoma cell line growth inhibition [POLQ]
Conditions: for IC50: curve of first compound; for viability, T/C: stronger effect = lower value
Experimental: Multicellular complex tumor spheroid response to Polymerase (POL) inhibitors (novobiocin, ART-558, RP6685) in combination with a variety of drugs and investigational agents in selected tumor cell lines
The POL inhibitors (novobiocin, ART-558, and RP6685) were evaluated both individually and in combination with standard of care and investigational anticancer small molecules within a complex spheroid model of solid tumors. . Complex spheroids include a stromal component modeled by human endothelial cells (HUVEC) and fibroblasts modeled by human mesenchymal stem cells (MSCs). The concentration ranges selected for each drug and investigational agent were based upon clinically achievable concentrations if the clinical Cmax of the agent was known.
Compounds. The drugs and investigational agents: novobiocin (NSC847541), ART-558 (NSC835418), RP-6685 (NSC848927), peposertib (NSC802822), ceralasertib (NSC780249), elimusertib (NSC800525), camonsertib (NSC841442), AZD-1390 (NSC803789), olaparib (NSC753686), talazoparib (NSC767125), rucaparib (NSC756644), sotorasib (NSC818433), MRTX-1133 (NSC836407), SN-38 (NSC673596), topotecan (NSC609699), epotoside (NSC141540), doxorubicin (NSC123127), gemcitabine (NSC613327), 5-fluorouracil (NSC19893), paclitaxel (NSC125973), vemurafenib (NSC761431), MSA-2 (NSC828583), SN-011 (NSC837082), adavosertib (NSC754352), prexasertib (NSC758257), carboplatin (NSC241240) and oxaliplatin (NSC266046), were obtained from the National Cancer Institute (NCI) Developmental Therapeutics Program Chemical Repository (21). The FDA-approved anticancer drug set is available from the Developmental Therapeutics Program at https://dtp.cancer.gov/organization/dscb/obtaining/. […] The stock solutions were prepared in dimethyl sulfoxide (DMSO, Sigma-Aldrich, St. Louis, MO, cat. D2650), except for the platinum compounds which were prepared in saline (Quality Biological, Gaithersburg, MD, cat. 114-055-101), at 800-fold the tested concentration and stored at -70 degrees C prior to their use. All drugs and investigational agents were tested over a range starting from a high concentration at or near the clinical Cmax and decreasing in half-log increments. If the clinical Cmax for an agent had not been determined, the highest concentration tested was 10 microM, except for SN-38, which was tested at a high concentration of 1 microM.
Cell Culture. All cells were maintained in an incubator at 37 degrees C and 5% CO2 with 95% humidity. The PDC lines were cultured according to standard operating procedures established by the NCI PDMR (https://pdmr.cancer.gov). Table 3 of the manuscript, lists the cell lines along with the number of the three cell types plated to form the mct-spheroids and media for tumor cell growth. After thawing, all PDC lines, except 997537-175-T-J1-PDC and 415267-285-R-J2-PDC, were cultured in Matrigel-coated flasks prepared with a working solution of 1X Ham's F-12 nutrient mix, without supplementation (Thermo Fisher Scientific, cat. 11765054), 100 U/mL penicillin-streptomycin (Thermo Fisher Scientific, cat. 15140122), and 2.5% Matrigel (Corning Inc., Corning, NY, cat. 354248) for the first three passages. The two PDC lines 997537-175-T-J1-PDC and 415267-285-R-J2-PDC were cultured on uncoated flasks. The 857933-349-R-J2-PDC line was cultured in 6C/Colon 1B media containing advanced DMEM/F-12 (Thermo Fisher Scientific, cat. 12634028), 10 mM HEPES (Thermo Fisher Scientific, cat. 15630080), 1X GlutaMAX supplement (Thermo Fisher Scientific, cat. 35050061), 0.1 mg/mL primocin (InvivoGen, San Diego, CA, cat. ant-pm-2), 10% defined fetal bovine serum, heat inactivated (HyClone Laboratories Inc., Logan, UT, cat. SH30070.03HI), 50% L-WRN conditioned media (ATCC, cat. CRL-3276), 1.25 mM N-Acetyl-L-cysteine (Sigma-Aldrich, cat. A9165), 10 mM nicotinamide (Sigma-Aldrich, cat. N0636), 1X B-27 supplement (Thermo Fisher Scientific, cat. 17504044), 1X N-2 supplement (Thermo Fisher Scientific, cat. […]

[1] = second compound 0.0316 µM, first compound 0.0316 µM
[2] = second compound 0.0316 µM, first compound 0.1 µM
[3] = second compound 0.0316 µM, first compound 0.316 µM
[4] = second compound 0.0316 µM, first compound 1 µM
[5] = second compound 0.0316 µM, first compound 3.16 µM
[6] = second compound 0.0316 µM, first compound 10 µM
[7] = second compound 0.1 µM, first compound 0.0316 µM
[8] = second compound 0.1 µM, first compound 0.1 µM
[9] = second compound 0.1 µM, first compound 0.316 µM
[10] = second compound 0.1 µM, first compound 1 µM
[11] = second compound 0.1 µM, first compound 3.16 µM
[12] = second compound 0.1 µM, first compound 10 µM
[13] = second compound 0.316 µM, first compound 0.0316 µM
[14] = second compound 0.316 µM, first compound 0.1 µM
[15] = second compound 0.316 µM, first compound 0.316 µM
[16] = second compound 0.316 µM, first compound 1 µM
[17] = second compound 0.316 µM, first compound 3.16 µM
[18] = second compound 0.316 µM, first compound 10 µM
[19] = second compound 1 µM, first compound 0.0316 µM
[20] = second compound 1 µM, first compound 0.1 µM
[21] = second compound 1 µM, first compound 0.316 µM
[22] = second compound 1 µM, first compound 1 µM
[23] = second compound 1 µM, first compound 3.16 µM
[24] = second compound 1 µM, first compound 10 µM
[25] = second compound 3.16 µM, first compound 0.0316 µM
[26] = second compound 3.16 µM, first compound 0.1 µM
[27] = second compound 3.16 µM, first compound 0.316 µM
[28] = second compound 3.16 µM, first compound 1 µM
[29] = second compound 3.16 µM, first compound 3.16 µM
[30] = second compound 3.16 µM, first compound 10 µM
[31] = second compound 10 µM, first compound 0.0316 µM
[32] = second compound 10 µM, first compound 0.1 µM
[33] = second compound 10 µM, first compound 0.316 µM
[34] = second compound 10 µM, first compound 1 µM
[35] = second compound 10 µM, first compound 3.16 µM
[36] = second compound 10 µM, first compound 10 µM
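Further: spheroids exposed to drugs for one week before measurement.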
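Wherever viability, T/C is given: percent viability relative to DMSO vehicle control taken as 100%.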

SMILES: Nc1ccn(C2OC(CO)C(O)C2(F)F)c(=O)n1 (centres undefined) + COC1C(OC(N)=O)C(O)C(Oc2ccc3c(O)c(NC(=O)c4ccc(O)c(CC=C(C)C)c4)c(=O)oc3c2C)OC1(C)C
- IC50 (second compound 0.0316 µM): 81.8 nM
- IC50 (second compound 0.1 µM): 76.7 nM
- IC50 (second compound 0.316 µM): 63.1 nM
- IC50 (second compound 1 µM): 79.6 nM
- IC50 (second compound 3.16 µM): < 31.6 nM
- IC50 (second compound 10 µM): 66.2 nM
- viability, T/C [1]: 62.8%
- viability, T/C [2]: 44.3%
- viability, T/C [3]: 41.2%
- viability, T/C [4]: 35.1%
- viability, T/C [5]: 46.8%
- viability, T/C [6]: 44.4%
- viability, T/C [7]: 60.1%
- viability, T/C [8]: 40.6%
- viability, T/C [9]: 52.4%
- viability, T/C [10]: 37.7%
- viability, T/C [11]: 35.6%
- viability, T/C [12]: 39.2%
- viability, T/C [13]: 64.7%
- viability, T/C [14]: 40.6%
- viability, T/C [15]: 36.6%
- viability, T/C [16]: 30.9%
- viability, T/C [17]: 44.7%
- viability, T/C [18]: 41.2%
- viability, T/C [19]: 71.6%
- viability, T/C [20]: 44.4%
- viability, T/C [21]: 46.6%
- viability, T/C [22]: 33.8%
- viability, T/C [23]: 48.9%
- viability, T/C [24]: 45.5%
- viability, T/C [25]: 57%
- viability, T/C [26]: 38.8%
- viability, T/C [27]: 35%
- viability, T/C [28]: 39.6%
- viability, T/C [29]: 31.3%
- viability, T/C [30]: 42.4%
- viability, T/C [31]: 61%
- viability, T/C [32]: 44.1%
- viability, T/C [33]: 39.1%
- viability, T/C [34]: 39.3%
- viability, T/C [35]: 48.9%
- viability, T/C [36]: 31.4%

SMILES: O=C(c1cc(Cc2n[nH]c(=O)c3ccccc23)ccc1F)N1CCN(C(=O)C2CC2)CC1 + COC1C(OC(N)=O)C(O)C(Oc2ccc3c(O)c(NC(=O)c4ccc(O)c(CC=C(C)C)c4)c(=O)oc3c2C)OC1(C)C
- IC50 (second compound 0.0316 µM): > 10000 nM
- IC50 (second compound 0.1 µM): > 10000 nM
- IC50 (second compound 0.316 µM): > 10000 nM
- IC50 (second compound 1 µM): > 10000 nM
- IC50 (second compound 3.16 µM): > 10000 nM
- IC50 (second compound 10 µM): > 10000 nM
- viability, T/C [1]: 129%
- viability, T/C [2]: 114%
- viability, T/C [3]: 114%
- viability, T/C [4]: 122%
- viability, T/C [5]: 116%
- viability, T/C [6]: 101%
- viability, T/C [7]: 107%
- viability, T/C [8]: 113%
- viability, T/C [9]: 117%
- viability, T/C [10]: 129%
- viability, T/C [11]: 131%
- viability, T/C [12]: 93.6%
- viability, T/C [13]: 116%
- viability, T/C [14]: 110%
- viability, T/C [15]: 119%
- viability, T/C [16]: 135%
- viability, T/C [17]: 106%
- viability, T/C [18]: 99.5%
- viability, T/C [19]: 128%
- viability, T/C [20]: 122%
- viability, T/C [21]: 121%
- viability, T/C [22]: 127%
- viability, T/C [23]: 134%
- viability, T/C [24]: 98.2%
- viability, T/C [25]: 144%
- viability, T/C [26]: 114%
- viability, T/C [27]: 109%
- viability, T/C [28]: 121%
- viability, T/C [29]: 117%
- viability, T/C [30]: 98.9%
- viability, T/C [31]: 128%
- viability, T/C [32]: 119%
- viability, T/C [33]: 120%
- viability, T/C [34]: 128%
- viability, T/C [35]: 108%
- viability, T/C [36]: 95.2%
